Experimental data reported in publication PMC12162769, “Synthesis and Evaluation of a Hybrid Miltefosine-Silver Nanoparticle Complex: Synergistic Interaction with Benznidazole Against Trypanosoma cruzi” (Acta Parasitologica, 2025).
Values after ≈ are worked out from the molar mass of the structure shown.

Columns and labels:
[1] = Cytotoxic activity, MTT assay; assay type: cell-based; settings: mouse, L929 fibroblast cells, read-out: IC50 L929 (cytotoxicity)
Description: The Trypanosoma cruzi ATCC 50825 reference strain and the L929 mouse fibroblast cell line (American Type Culture Collection, USA) used in this study were obtained from the Parasite Bank of […] Bayar University Faculty of Medicine. Fibroblasts preserved in liquid nitrogen were treated with RPMI-1640 and passaged into RPMI-1640 medium containing 10% FBS (fetal bovine serum). The cells were incubated at 37 °C with 5% CO2 for 48 h. The number and viability of proliferating cells were determined using Trypan Blue staining and a hemocytometer. A 100 μL cell suspension containing 10^5 cells/mL was distributed into 96-well microplates. Serial dilutions of the […] suspension (final concentration range: 5000-39 μg/mL), miltefosine (final concentration range: 512-0.125 μg/mL), and benznidazole (final concentration range: 640-0.60 μg/mL) were prepared in a separate microplate and transferred to the microplates containing the cells. The plates were incubated at 37 °C with 5% CO2 for 48 h. […] IC50 values indicating cytotoxic activity were calculated using GraphPad Prism 8.4.2 software. The cytotoxic activity tests were repeated three times on different days.

[2] = test system: T. cruzi ATCC 50825 strain epimastigotes; test: Minimum parasiticidal concentration (MPC), motility and morphology under inverted microscope; assay type: cell-based, Trypanosoma cruzi
[3] = test system: T. cruzi ATCC 50825 strain epimastigotes; test: Antitrypanosomal activity, broth microdilution with MTT viability (IC50); assay type: cell-based, Trypanosoma cruzi; settings: for SI (selectivity index): IC50 fibroblasts (L929) / IC50 T. cruzi epimastigotes; for IC50: Trypanosoma cruzi
Description: The Trypanosoma cruzi ATCC 50825 reference strain and the L929 mouse fibroblast cell line (American Type Culture Collection, USA) used in this study were obtained from the Parasite Bank of […] Bayar University Faculty of Medicine. […] For the determination of antitrypanosomal activity, 100 μL of RPMI-1640 medium was distributed into each well of sterile, flat-bottom, 96-well microplates. Serial dilutions of the hybrid NP complex were prepared in the range of 2500-19.5 μg/mL, miltefosine in the range of 128-1 μg/mL, and benznidazole in the range of 320-0.30 μg/mL. […] The morphological structure and motility of the epimastigotes in all wells were observed under an inverted microscope. The lowest concentration of the active substance at which all parasites were immobile and their morphology was disrupted was determined as the minimum parasiticidal concentration (MPC). […] Absorbance values were measured at 570 nm using a Thermo Varioskan model spectrophotometer (USA). IC50 values indicating antitrypanosomal activity were calculated using GraphPad Prism 8.4.2 software. Efficacy tests were repeated three times on different days.

T. cruzi trypomastigote = test system: T. cruzi trypomastigote; set-up: method as in Gulin et al. (2022) [17]; settings: trypomastigote forms; ref Gulin et al. (2022) [17]; cited from earlier work
T. cruzi amastigote = test system: T. cruzi amastigote; set-up: method as in Gulin et al. (2022) [17]; settings: amastigote forms; ref Gulin et al. (2022) [17]; cited from earlier work
[4] = ATCC50825, 24 h, 24 h, epimastigotes
[5] = ATCC50825, 48 h, 48 h, epimastigotes
[6] = ATCC50825, 72 h, 72 h, epimastigotes

O=C(Cn1ccnc1[N+](=O)[O-])NCc1ccccc1 [Benznidazole]
IC50 at 24 h [1]: 1010 µg/mL (≈ 3880 µM) | IC50 at 48 h [1]: 822 µg/mL (≈ 3160 µM) | IC50 at 72 h [1]: 807 µg/mL (≈ 3100 µM) | MPC (minimum parasiticidal concentration) ([2]; 24 h): 155 µg/mL | MPC (minimum parasiticidal concentration) ([2]; 48 h): 155 µg/mL | MPC (minimum parasiticidal concentration) ([2]; 72 h): 77.5 µg/mL | SI (selectivity index) ([3]; 24 h): 15 | SI (selectivity index) ([3]; 48 h): 18.2 | SI (selectivity index) ([3]; 72 h): 23 | IC50 [3, 4]: 67.1 µg/mL (≈ 258 µM) | IC50 [3, 5]: 45 µg/mL (≈ 173 µM) | IC50 [3, 6]: 34.5 µg/mL (≈ 133 µM)

CCCCCCCCCCCCCCCCOP(=O)([O-])OCC[N+](C)(C)C [Miltefosine]
IC50 at 24 h [1]: 38 µg/mL (≈ 93.4 µM) | IC50 at 48 h [1]: 33.5 µg/mL (≈ 82.2 µM) | IC50 at 72 h [1]: 27 µg/mL (≈ 66.2 µM) | MPC (minimum parasiticidal concentration) ([2]; 24 h): 128 µg/mL | MPC (minimum parasiticidal concentration) ([2]; 48 h): 128 µg/mL | MPC (minimum parasiticidal concentration) ([2]; 72 h): 64 µg/mL | SI (selectivity index) ([3]; 24 h): 1.5 | SI (selectivity index) ([3]; 48 h): 2.2 | IC50 T. cruzi ([3]; 72 h, epimastigotes): 6.42 µg/mL (≈ 15.8 µM) | SI (selectivity index) ([3]; 72 h): 4.2 | IC50 [3, 4]: 26.2 µg/mL (≈ 64.2 µM) | IC50 [3, 5]: 15 µg/mL (≈ 36.8 µM) | IC50 [3, 6]: 6.42 µg/mL (≈ 15.8 µM) | Selectivity (SI) as worded ([3]; over 24, 48 and 72 h, L929 vs T. cruzi epimastigotes): > 1 | IC50 (T. cruzi trypomastigote): 550 nM | IC50 (T. cruzi amastigote): 480 nM
